Assay results published in patent US20240109865A1, “INDAZOLE COMPOUNDS AS KINASE INHIBITORS” (TYRA BIOSCIENCES, INC., priority 2020, published 2024).

Columns and labels:
[1] = target: FGFR3 (Homo sapiens (Human), UniProt P22607); assay: Kinase assay, binding constants (Kd), kinase-tagged T7 phage, qPCR
Summary of the method: (§1)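 Kinase-tagged T7 phage (grown in BL21-derived E. coli) competed with test compound for immobilized biotinylated ligand on streptavidin beads. Kds came from an 11-point 3-fold dilution series at 0.9% final DMSO. Bound kinase was eluted with non-biotinylated ligand and quantified by qPCR, with Hill slope fixed at −1.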

[2] = target: FGFR3 (V555M) (Homo sapiens (Human), UniProt P22607, V555M); assay: as above; settings: V555M mutant
Summary of the method: as §1

[3] = target: FGFR1 (Homo sapiens (Human), UniProt P11362); assay: as above
Summary of the method: as §1

[4] = target: FGFR2 (Homo sapiens (Human), UniProt P21802); assay: as above
Summary of the method: as §1

[5] = target: FGFR4 (Homo sapiens (Human), UniProt P22455); assay: as above
Summary of the method: as §1

[6] = target: FGFR1-BCR Ba/F3 cells (Homo sapiens, UniProt P11362); assay: Ba/F3 cell viability assay (CellTiter-Glo 2.0), FGFR1-BCR Ba/F3; type: cell-based; settings: read-out: Ba/F3 Cells FGFR1 (IC50 nM), 48 hours, Cell Titer Glo 2.0
Summary of the method: (§2)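 Viability read as ATP luminescence (CellTiter-Glo 2.0) after 48 h compound exposure, normalized to DMSO-treated cells and fitted with a 4-parameter curve for IC50. Cells: Ba/F3 dependent on FGFR1-BCR or FGFR3-BAIAP2L1 fusion kinase; top dose 30 μM, 10-fold steps, 9 doses in triplicate.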

[7] = tested on: RT112/84 cells (FGFR3-fusion); assay: RT112/84 cancer cell line cell viability assay (CellTiter-Glo 2.0); type: cell-based; settings: Homo sapiens, 72 hours, Cell Titer Glo 2.0
From the text: Experimental Purpose: To detect the change of intracellular ATP by Cell Titer-Glo® and to evaluate the inhibitory effect of the compounds on cancer cell lines by determining the in vitro IC50 value of the compounds.
Cell Titer-Glo® 2.0 Luminescent cell viability assay reagent was purchased from Promega (Madison, WI). RT112/84 and KG-1 cell lines were purchased from American Type Culture Collection (Manassas, VA). UM-UC-14 cell line was purchased from Sigma (St. Louis, MO). RT112/84, UM-UC-14, and KG-1 cells were cultured in RPMI1640 media supplemented with 10% fetal bovine serum. Cultures were maintained at 37° C. in a humidified atmosphere of 5% C02 and 95% air.
Cell Viability Assay Procedure: Cells were plated in 96-well clear bottom/white plates (Corning #3903) at 10,000 cells/well in 100 μl of media, incubated overnight. The next day, test compound DMSO stock solutions were made at 10 mM and 2 μM final concentration. Compounds were then added to cells in a 9-dose, 10-fold dilution series starting at 30 μM with an HP 300e Digital Dispenser (each dose was applied in triplicate). DMSO was backfilled to each well up to 301 nL total volume of test compound+DMSO, and a total of 301 nL DMSO was added to a control/no test compound well in triplicate. The cells in cell culture plates were incubated with the compounds at 37° C. and 5% C02 for 72 hours. Then 50 μl of Cell Titer Glo 2.0 reagent was added to each well of the cell culture plates. The contents were covered from light and mixed on an orbital shaker at room temperature for 10 min. Luminescence was recorded by a Synergy H1 Microplate Reader (Biotek, Winooski, VT). Cells were assessed as a percentage of DMSO only treated control cells. Curves were plotted and IC50 values were calculated using the GraphPad Prism 8 program based on a sigmoidal dose-response equation (4 parameter).

[8] = target: FGFR3-BAIAP2L1 Ba/F3 cells (Homo sapiens, UniProt P22607); assay: Ba/F3 cell viability assay (CellTiter-Glo 2.0), FGFR3-BAIAP2L1 Ba/F3; type: cell-based; settings: for Ba/F3 FGFR1/FGFR3 Selectivity: FGFR3 > FGFR1 selectivity ratio in Ba/F3 FGFR fusion cell based assays; for IC50: read-out: Ba/F3 Cells FGFR3 (IC50 nM), FGFR3-BAIAP2L1 Ba/F3 cells, 48 hours, Cell Titer Glo 2.0
Summary of the method: as §2

Sequence of FGFR4 (P22455 22-802): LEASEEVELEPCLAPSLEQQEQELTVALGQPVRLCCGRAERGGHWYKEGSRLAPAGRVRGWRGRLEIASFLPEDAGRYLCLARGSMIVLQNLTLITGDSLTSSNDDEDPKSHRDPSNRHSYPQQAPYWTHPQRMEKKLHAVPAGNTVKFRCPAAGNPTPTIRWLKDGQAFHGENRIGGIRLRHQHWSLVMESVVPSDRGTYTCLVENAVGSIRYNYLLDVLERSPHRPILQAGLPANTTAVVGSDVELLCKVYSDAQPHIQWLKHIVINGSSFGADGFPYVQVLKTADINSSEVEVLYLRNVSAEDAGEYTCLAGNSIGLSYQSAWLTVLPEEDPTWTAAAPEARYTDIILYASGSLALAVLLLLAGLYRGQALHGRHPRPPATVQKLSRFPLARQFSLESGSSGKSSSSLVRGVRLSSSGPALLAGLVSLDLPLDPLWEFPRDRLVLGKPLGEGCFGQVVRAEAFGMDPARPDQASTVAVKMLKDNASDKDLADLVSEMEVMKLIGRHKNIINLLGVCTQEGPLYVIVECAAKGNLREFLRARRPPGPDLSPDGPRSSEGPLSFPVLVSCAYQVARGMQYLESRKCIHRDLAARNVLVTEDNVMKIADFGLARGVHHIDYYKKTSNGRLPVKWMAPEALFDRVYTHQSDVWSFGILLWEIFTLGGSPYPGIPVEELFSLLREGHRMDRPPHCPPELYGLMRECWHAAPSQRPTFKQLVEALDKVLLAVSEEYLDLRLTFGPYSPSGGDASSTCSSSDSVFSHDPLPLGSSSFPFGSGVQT
Sequence of FGFR2 (P21802 22-821): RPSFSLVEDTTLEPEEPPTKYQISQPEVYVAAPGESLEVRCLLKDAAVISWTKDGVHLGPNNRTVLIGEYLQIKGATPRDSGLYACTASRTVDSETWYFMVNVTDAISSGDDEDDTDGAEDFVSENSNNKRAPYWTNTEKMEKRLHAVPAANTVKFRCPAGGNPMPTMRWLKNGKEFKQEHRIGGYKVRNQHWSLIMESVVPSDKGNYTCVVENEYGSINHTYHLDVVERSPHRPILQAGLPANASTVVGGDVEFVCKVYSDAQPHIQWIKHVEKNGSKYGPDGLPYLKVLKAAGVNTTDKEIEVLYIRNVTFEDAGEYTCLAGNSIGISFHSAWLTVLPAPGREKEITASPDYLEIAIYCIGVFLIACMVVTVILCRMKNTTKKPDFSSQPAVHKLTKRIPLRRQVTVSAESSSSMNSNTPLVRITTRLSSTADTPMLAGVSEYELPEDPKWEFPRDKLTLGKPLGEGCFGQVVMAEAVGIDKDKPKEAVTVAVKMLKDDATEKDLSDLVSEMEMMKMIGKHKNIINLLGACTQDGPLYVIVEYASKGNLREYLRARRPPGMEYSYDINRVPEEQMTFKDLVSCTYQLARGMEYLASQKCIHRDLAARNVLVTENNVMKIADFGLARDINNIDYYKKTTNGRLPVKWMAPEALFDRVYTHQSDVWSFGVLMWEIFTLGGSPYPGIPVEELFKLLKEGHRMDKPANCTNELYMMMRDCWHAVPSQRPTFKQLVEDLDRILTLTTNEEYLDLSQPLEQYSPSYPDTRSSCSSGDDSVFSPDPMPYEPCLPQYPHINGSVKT
Sequence of FGFR1-BCR Ba/F3 cells (P11362 22-822 limits assumed, change not shown): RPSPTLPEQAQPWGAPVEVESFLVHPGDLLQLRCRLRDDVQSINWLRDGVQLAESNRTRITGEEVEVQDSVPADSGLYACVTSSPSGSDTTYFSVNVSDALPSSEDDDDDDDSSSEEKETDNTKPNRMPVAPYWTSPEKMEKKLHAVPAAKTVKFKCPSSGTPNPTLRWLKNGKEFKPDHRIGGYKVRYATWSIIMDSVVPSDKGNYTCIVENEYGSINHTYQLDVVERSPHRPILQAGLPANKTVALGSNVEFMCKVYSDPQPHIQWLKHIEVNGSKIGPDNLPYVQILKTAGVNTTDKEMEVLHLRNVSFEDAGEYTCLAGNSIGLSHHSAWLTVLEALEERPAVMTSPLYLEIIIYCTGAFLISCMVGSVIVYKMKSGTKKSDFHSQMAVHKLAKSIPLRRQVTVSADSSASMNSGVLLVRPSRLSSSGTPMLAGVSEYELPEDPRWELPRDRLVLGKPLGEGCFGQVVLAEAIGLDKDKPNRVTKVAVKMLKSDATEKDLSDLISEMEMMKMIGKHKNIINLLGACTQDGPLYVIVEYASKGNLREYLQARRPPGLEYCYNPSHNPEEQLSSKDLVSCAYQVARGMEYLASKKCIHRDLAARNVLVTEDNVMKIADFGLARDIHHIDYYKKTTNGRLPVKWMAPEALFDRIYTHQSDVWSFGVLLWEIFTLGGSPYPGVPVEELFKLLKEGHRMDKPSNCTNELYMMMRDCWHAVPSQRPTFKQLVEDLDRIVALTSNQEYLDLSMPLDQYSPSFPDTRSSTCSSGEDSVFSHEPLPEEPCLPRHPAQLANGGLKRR
Sequence of FGFR1 (P11362 22-822): as the sequence (P11362 22-822 limits assumed, change not shown) above
Sequence of FGFR3-BAIAP2L1 Ba/F3 cells (P22607 23-806 limits assumed, change not shown): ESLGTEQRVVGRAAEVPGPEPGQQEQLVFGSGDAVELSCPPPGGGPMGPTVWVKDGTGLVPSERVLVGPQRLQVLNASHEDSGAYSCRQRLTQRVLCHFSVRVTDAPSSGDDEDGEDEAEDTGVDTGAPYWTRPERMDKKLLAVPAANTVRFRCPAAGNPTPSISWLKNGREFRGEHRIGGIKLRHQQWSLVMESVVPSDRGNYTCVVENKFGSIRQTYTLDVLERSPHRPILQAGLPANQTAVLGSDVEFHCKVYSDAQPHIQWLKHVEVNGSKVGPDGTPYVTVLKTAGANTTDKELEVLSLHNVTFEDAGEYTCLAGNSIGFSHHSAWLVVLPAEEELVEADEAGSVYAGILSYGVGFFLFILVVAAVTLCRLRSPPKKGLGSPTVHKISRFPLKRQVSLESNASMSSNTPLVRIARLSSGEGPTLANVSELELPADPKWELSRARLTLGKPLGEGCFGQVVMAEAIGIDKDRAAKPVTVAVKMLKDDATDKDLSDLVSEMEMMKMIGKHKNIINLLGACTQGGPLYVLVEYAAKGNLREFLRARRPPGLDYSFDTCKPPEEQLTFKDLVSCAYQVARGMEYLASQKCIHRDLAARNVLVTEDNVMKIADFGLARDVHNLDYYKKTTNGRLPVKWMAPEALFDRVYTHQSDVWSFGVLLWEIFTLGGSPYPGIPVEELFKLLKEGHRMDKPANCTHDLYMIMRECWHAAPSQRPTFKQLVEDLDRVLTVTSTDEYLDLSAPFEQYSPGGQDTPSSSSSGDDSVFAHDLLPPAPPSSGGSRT
Sequence of FGFR3 (P22607 23-806): as the sequence (P22607 23-806 limits assumed, change not shown) above
Sequence of FGFR3 (V555M) (P22607 23-806 V555M): as the sequence (P22607 23-806 limits assumed, change not shown) above, with V533M counted along it

Compound	Kd [1] [nM]	Kd [2] [nM]	Kd [3] [nM]	Kd [4] [nM]	Kd [5] [nM]	IC50 [6] [nM]	IC50 [7] [nM]	Ba/F3 FGFR1/FGFR3 Selectivity [8]	IC50 [8] [nM]
C[C@@H](Oc1ccc2[nH]nc(-c3ccc(N4CC5(C4)CS(=O)(=O)C5)nc3)c2c1)c1c(Cl)cncc1Cl [Example 112, 6-[5-[5-[(1R)-1-(3,5-dichloro-4-pyridyl)ethoxy]-1H-indazol-3-yl]-2-pyridyl]-2λ^6-thia-6-azaspiro[3.3]heptane 2,2-dioxide]	1 to 20	1 to 20	1 to 20	20 to 100	1 to 20	100 to 300	1 to 20	12	1 to 20
C[C@@H](Oc1ccc2[nH]nc(-c3ccc(N4CC5(CCS(=O)(=O)CC5)C4)nc3)c2c1)c1c(Cl)cncc1Cl [Example 113, 2-[5-[5-[(1R)-1-(3,5-dichloro-4-pyridyl)ethoxy]-1H-indazol-3-yl]-2-pyridyl]-7λ^6-thia-2-azaspiro[3.5]nonane 7,7-dioxide]	1 to 20	1 to 20	1 to 20	1 to 20	1 to 20	20 to 100	1 to 20	11	1 to 20
C[C@@H](Oc1ccc2[nH]nc(-c3cnc(N4CCC5(CCNC5=O)CC4)nc3)c2c1)c1c(Cl)cncc1Cl [Example 55, 8-[5-[5-[(1R)-1-(3,5-dichloro-4-pyridyl)ethoxy]-1H-indazol-3-yl]pyrimidin-2-yl]-2,8-diazaspiro-[4.5]decan-1-one]	1 to 20	1 to 20	20 to 100	20 to 100	1 to 20	> 300		16	20 to 100
C[C@@H](Oc1ccc2[nH]nc(-c3ccc(C4CCN(C(N)=O)CC4)nc3)c2c1)c1c(Cl)cncc1Cl [Example 72, 4-[5-[5-[(1R)-1-(3,5-dichloro-4-pyridyl)ethoxy]-1H-indazol-3-yl]-2-pyridyl]piperidine-1-carboxamide]	1 to 20	1 to 20	1 to 20	1 to 20	1 to 20	20 to 100		15	1 to 20
C[C@@H](Oc1ccc2[nH]nc(-c3cnn(C4CCN(C5COC5)CC4)c3)c2c1)c1cc(F)cc(F)c1 [Example 168, 5-[(1R)-1-(3,5-difluorophenyl)ethoxy]-3-[1-[1-(oxetan-3-yl)-4-piperidyl]pyrazol-4-yl]-1H-indazole]	1 to 20	1 to 20	100 to 300	20 to 100	> 300	> 300		8	20 to 100
C[C@@H](Oc1ccc2[nH]nc(-c3ccc(N4CC5(CCN(S(C)(=O)=O)CC5)C4)nc3)c2c1)c1c(Cl)cncc1Cl [Example 111, 5-[(1R)-1-(3,5-dichloro-4-pyridyl)ethoxy]-3-[6-(7-methylsulfonyl-2,7-diazaspiro[3.5]nonan-2-yl)-3-pyridyl]-1H-indazole]	1 to 20	1 to 20	20 to 100	20 to 100	1 to 20	100 to 300	1 to 20	15	1 to 20
C[C@@H](Oc1ccc2[nH]nc(-c3ccc(C4CCN(S(C)(=O)=O)CC4)nc3)c2c1)c1c(Cl)cncc1Cl [Example 70, 5-[(1R)-1-(3,5-dichloro-4-pyridyl)ethoxy]-3-[6-(1-methylsulfonyl-4-piperidyl)-3-pyridyl]-1H-indazole]	1 to 20	1 to 20	1 to 20	1 to 20	1 to 20	20 to 100		20	1 to 20
C[C@@H](Oc1ccc2[nH]nc(-c3cnc(N4CCC5(CC4)C(=O)NCCN5C)c(F)c3)c2c1)c1c(Cl)cncc1Cl [Example 44, 9-[5-[5-[(1R)-1-(3,5-dichloro-4-pyridyl)ethoxy]-1H-indazol-3-yl]-3-fluoro-2-pyridyl]-1-methyl-1,4,9-triazaspiro[5.5]undecan-5-one]	1 to 20	1 to 20	1 to 20	1 to 20	1 to 20	20 to 100			1 to 20
Cc1cncc(C)c1[C@H](C)Oc1ccc2[nH]nc(-c3ccc(N4CC5(C4)CN(S(C)(=O)=O)C5)nc3)c2c1 [Example 140, 5-[(1S)-1-(3,5-dimethyl-4-pyridyl)ethoxy]-3-[6-(2-methylsulfonyl-2,6-diazaspiro[3.3]heptan-6-yl)-3-pyridyl]-1H-indazole]	20 to 100	1 to 20	> 300	> 300	> 300	> 300		19	100 to 300
C[C@H](Oc1ccc2[nH]nc(-c3ccc(N4CC5(C4)CN(S(C)(=O)=O)C5)nc3)c2c1)c1c(Cl)cncc1Cl [Example 160, 5-[(1S)-1-(3,5-dichloro-4-pyridyl)ethoxy]-3-[6-(2-methylsulfonyl-2,6-diazaspiro[3.3]heptan-6-yl)-3-pyridyl]-1H-indazole]	20 to 100	1 to 20	> 300	100 to 300	100 to 300	> 300		17	100 to 300
C[C@@H](Oc1ccc2[nH]nc(-c3ccc(N4CC5(CCN(S(C)(=O)=O)C5)C4)nc3)c2c1)c1c(Cl)cncc1Cl [Example 163, 5-[(1R)-1-(3,5-dichloro-4-pyridyl)ethoxy]-3-[6-(7-methylsulfonyl-2,7-diazaspiro[3.4]octan-2-yl)-3-pyridyl]-1H-indazole]	1 to 20	1 to 20	1 to 20	1 to 20	1 to 20	20 to 100		17	1 to 20
C[C@@H](Oc1ccc2[nH]nc(-c3ccc(N4CCNC(=O)C4)nc3)c2c1)c1c(Cl)cncc1Cl [Example 36, 4-[5-[5-[(1R)-1-(3,5-dichloro-4-pyridyl)ethoxy]-1H-indazol-3-yl]-2-pyridyl]piperazin-2-one]	1 to 20	1 to 20	1 to 20	1 to 20	1 to 20	20 to 100		23	1 to 20
C[C@@H](Oc1ccc2[nH]nc(-c3ccc(C4CCN(C(=O)N(C)C)CC4)nc3)c2c1)c1c(Cl)cncc1Cl [Example 71, 4-[5-[5-[(1R)-1-(3,5-dichloro-4-pyridyl)ethoxy]-1H-indazol-3-yl]-2-pyridyl]-N,N-dimethyl-piperidine-1-carboxamide]	1 to 20	1 to 20	1 to 20	1 to 20	1 to 20	20 to 100		15	1 to 20
C[C@@H](Oc1ccc2[nH]nc(-c3cnn(C4CCNCC4)c3)c2c1)c1c(Cl)cncc1Cl [Example 64, 5-[(1R)-1-(3,5-dichloro-4-pyridyl)ethoxy]-3-[1-(4-piperidyl)pyrazol-4-yl]-1H-indazole]	1 to 20	1 to 20	1 to 20	1 to 20	1 to 20	100 to 300		16	1 to 20
C[C@@H](Oc1ccc2[nH]nc(-c3cnn(C4CCN(C(=O)N(C)C)CC4)c3)c2c1)c1c(Cl)cncc1Cl [Example 67, 4-[4-[5-[(1R)-1-(3,5-dichloro-4-pyridyl)ethoxy]-1H-indazol-3-yl]pyrazol-1-yl]-N,N-dimethyl-piperidine-1-carboxamide]	1 to 20	1 to 20	1 to 20	1 to 20	1 to 20	20 to 100		12	1 to 20
